In US10364256B2 (GlaxoSmithKline Intellectual Property Development Limited, priority 2015, dated 2019):
Like-named read-outs stand apart in the source and are kept apart here.

How the values were obtained:
[1] = tested on: NQO1 specific enzyme activity in BEAS-2B cells (marker for NRF2 activation); experiment: BEAS-2B NQO1 MTT Assay; format: cell-based; conditions: Homo sapiens, compound incubated 48 hours, read-out: EC50 (NQO1 specific enzyme activity induction)
Procedure, shortened: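 BEAS-2B cells treated with compound for 48 h at 37 °C, then lysed; NQO1 activity in lysates measured kinetically by MTT reduction at A570 over 30 min. pEC50 from 3-parameter fit of ΔOD/min versus log concentration; lysate also taken for Cell Titer Glo.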

[2] = biological target: T1, Keap1 Kelch domain (321-609) / TAMRA-labeled 16mer NRF2 peptide (ETGE motif) (Homo sapiens, UniProt Q14145); experiment: NRF2-Keap1 FP Assay (Keap1 Kelch fluorescence polarization); format: binding; conditions: 20 nM Keap1 (321-609), 8 nM Tamra labeled peptide
T1 construct: the Kelch domain (321-609) of Keap1 is used
Procedure, shortened: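 Compound dilutions (3-fold) were incubated 1 hr at room temperature with 20 nM Keap1 Kelch (321-609) and 8 nM TAMRA-labeled ETGE 16mer peptide. Buffer was 50 mM Tris pH 8.0, 100 mM NaCl, 5 mM MgCl2, 1 mM DTT, 2 mM CHAPS, 0.005% BSA. Fluorescence polarization (mP) was normalized to controls and fitted with a four-parameter equation to give pIC50.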

[3] = biological target: T2, full length Keap1 protein / full length NRF2 protein (Homo sapiens, UniProt Q14145); experiment: NRF2-Keap1 TR-FRET Assay; format: binding; conditions: 25 nM Keap1-FlagHis and 50 nM biotin-NRF2 added
T2 construct: full length NRF2 protein and full length Keap1 protein (Keap1 exists a dimer) are used; His
Source text: In the NRF2-Keap1 TR-FRET (time-resolved fluorescence resonance energy transfer) assay, full length NRF2 protein and full length Keap1 protein (Keap1 exists a dimer) are used. The assay detects the ability of compound to displace the binding of FlagHis-tagged Keap1 with biotinylated, Avi-tagged NRF2 protein. Biotin-NRF2 binds to streptavidin-europium (a component of the detection mix) and Keap1-FlagHis is recognized by anti-Flag APC (allophycocyanin) antibody (also a component of the detection mix). If binding occurs between the two proteins, there will be an energy transfer from the Eu+3 (donor) at 615 nm to the APC (acceptor) at 665 nm. A potential Keap1 inhibitor will cause a reduction in the TR-FRET signal by interfering with the binding of Keap1 to NRF2.
One hundred nanoliters of 100× compound dose response curves (serial 3-fold dilutions) in DMSO are stamped using an Echo liquid handling system (Labcyte) into 384-well, low volume, black assay plates (Greiner, #784076), with DMSO in columns 6 and 18. The top concentration of compound is located in columns 1 and 13. All reagents are diluted in assay buffer (50 mM Tris, pH 8.0, 5 mM MgCl2, 100 mM NaCl, 0.005% BSA, 1 mM DTT, and 2 mM CHAPS). The BSA, DTT, and CHAPS are added to the assay buffer on the day of assay. Using a Multidrop Combi (Thermo Electron Corporation) equipped with a metal tip dispenser, 5 ul of 25 nM Keap1-FlagHis protein is added to all wells of the compound plate, with the exception of the wells in column 18. Wells in column 18 receive 5 ul of assay buffer instead. Plates are centrifuged at 500 rpm for 1 minute, covered with a plate lid, and incubated at 37° C. for 2.25 hours. Plates are then removed from the incubator and allowed to cool to RT for 15 minutes. Five microliters of 50 nM biotin-NRF2 protein is then added to all wells of the plates and the plates are spun at 500 rpm for 1 minute, followed by incubating at 4° C. for 1.25 hours. The plates are then allowed to warm to RT for 15 minutes, followed by the addition of 10 ul of detection mix (1 nM Streptavidin Eu+ W1024 and 5 ug/ml mouse anti-DYKDDDDK IgG conjugated to SureLight APC antibody; both from Columbia Biosciences) to all wells. Plates are spun at 500 rpm for 1 minute, incubated for 1 hour at RT, and read on an Envision plate reader using a 320 nm excitation filter and 615 nm and 665 nm emission filters. Compound response (% inhibition) and potency (pIC50) are calculated based on the ratio of the two emissions (665 nm/615 nm) and then the transformed data is normalized against controls in the assay (control 1=1% DMSO in the presence of NRF2 and Keap1 protein and control 2=1% DMSO in the absence of protein). Data analysis is handled using the software package Abase XE (Surrey, United Kingdom). The % inhibition values are calculated from the ratio (transformed) data by the equation: 100−(100*(compound response−average control 2)/(average control 1−average control2)). For calculation of pIC50s, Abase XE uses a four parameter equation. pIC50 is the negative log of the IC50.

T2 sequence (Q14145 whole entry): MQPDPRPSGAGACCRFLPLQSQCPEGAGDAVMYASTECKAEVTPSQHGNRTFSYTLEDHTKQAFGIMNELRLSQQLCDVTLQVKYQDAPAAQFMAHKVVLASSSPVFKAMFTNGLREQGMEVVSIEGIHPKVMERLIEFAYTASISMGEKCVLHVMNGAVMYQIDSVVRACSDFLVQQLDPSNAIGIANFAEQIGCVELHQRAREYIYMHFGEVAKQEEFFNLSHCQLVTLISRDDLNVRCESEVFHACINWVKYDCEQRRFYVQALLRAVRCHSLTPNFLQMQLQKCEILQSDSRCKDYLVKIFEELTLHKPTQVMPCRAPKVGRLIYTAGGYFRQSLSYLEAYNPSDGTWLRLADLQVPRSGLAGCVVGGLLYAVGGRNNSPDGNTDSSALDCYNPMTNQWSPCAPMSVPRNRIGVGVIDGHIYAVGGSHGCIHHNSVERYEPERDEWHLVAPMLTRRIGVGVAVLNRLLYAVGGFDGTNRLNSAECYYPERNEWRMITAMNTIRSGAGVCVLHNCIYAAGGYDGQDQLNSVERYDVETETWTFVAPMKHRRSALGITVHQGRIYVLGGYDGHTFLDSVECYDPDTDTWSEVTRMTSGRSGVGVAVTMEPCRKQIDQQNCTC
T1 sequence (Q14145 321-609): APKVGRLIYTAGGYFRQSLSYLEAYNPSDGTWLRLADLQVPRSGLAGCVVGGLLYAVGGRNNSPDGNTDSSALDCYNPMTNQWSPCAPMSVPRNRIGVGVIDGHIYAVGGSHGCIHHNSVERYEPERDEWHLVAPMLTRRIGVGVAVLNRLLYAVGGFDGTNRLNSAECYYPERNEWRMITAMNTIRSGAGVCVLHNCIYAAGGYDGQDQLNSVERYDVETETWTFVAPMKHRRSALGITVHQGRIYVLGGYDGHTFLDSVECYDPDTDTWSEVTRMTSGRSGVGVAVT

Row | SMILES | IC50 [2] [µM] | IC50 [3] [µM] | EC50 [1] [µM] | EC50 ([1]; BEAS-2B, 48 h) [µM]
1 | Cn1cc(C2CC2c2c(C(=O)O)cnn2-c2cccc(-c3cccc(OCC4CCOCC4)c3)c2)nn1 (stereo not drawn) [Example 174, 5-(2-(1-Methyl-1H-1,2,3-triazol-4-yl)cyclopropyl)-1-(3′-((tetrahydro-2H-pyran-4-yl)methoxy)-[1,1′-biphenyl]-3-yl)-1H-pyrazole-4-carboxylic acid] | 0.01 to 0.1 | 0.1 to 1 | 1 to 10 | 
2 | COCCC(COc1cccc(-c2cccc(-n3ncc(C(=O)O)c3C3CC3c3cn(C)nn3)c2)c1)C1CCCCC1 (stereo not drawn) [Example 168, 1-(3′-(2-Cyclohexyl-4-methoxybutoxy)-[1,1′-biphenyl]-3-yl)-5-(2-(1-methyl-1H-1,2,3-triazol-4-yl)cyclopropyl)-1H-pyrazole-4-carboxylic acid] | 0.01 to 0.1 | 0.1 to 1 | 0.01 to 0.1 | 
3 | O=C(O)c1cnn(-c2cccc(-c3cccc(C(=O)N4CCCCC45CC5)c3F)c2)c1C1CC1 [Example 19, 1-[3-(3-{4-Azaspiro[2.5]octane-4-carbonyl}-2-fluorophenyl)phenyl]-5-cyclopropyl-1H-pyrazole-4-carboxylic Acid] | 0.1 to 1 | 1 to 10 | 1 to 10 | 
4 | O=C(O)c1cnn(-c2cccc(-c3cccc(-n4ncc5c4C(C4CC4)CC5)c3)c2)c1C1CC1 (stereo not drawn) [Example 207, 5-Cyclopropyl-1-(3′-(6-cyclopropyl-5,6-dihydrocyclopenta[c]pyrazol-1(4H)-yl)-[1,1′-biphenyl]-3-yl)-1H-pyrazole-4-carboxylic Acid] | 0.1 to 1 | 1 to 10 | 1 to 10 | 
5 | Cn1cc(C2CC2c2c(C(=O)O)cnn2-c2cccc(-c3cccc(OC(C)(C)C)c3)c2)nn1 (stereo not drawn) [Example 166, 1-(3′-(tert-Butoxy)-[1,1′-biphenyl]-3-yl)-5-(2-(1-methyl-1H-1,2,3-triazol-4-yl)cyclopropyl)-1H-pyrazole-4-carboxylic acid] | 0.01 to 0.1 | 0.1 to 1 | 0.1 to 1 | 
6 | Cn1cc(C2CC2c2c(C(=O)O)cnn2-c2cc(C#N)cc(-c3cccc(OCC4CCCCC4)c3)c2)nn1 (stereo not drawn) [Example 189, 1-(5-cyano-3′-(cyclohexylmethoxy)-[1,1′-biphenyl]-3-yl)-5-(2-(1-methyl-1H-1,2,3-triazol-4-yl)cyclopropyl)-1H-pyrazole-4-carboxylic acid] | > 10 | 10 to 100 | 1 to 10 | 
7 | Cn1cnc(C2CC2c2c(C(=O)O)cnn2-c2cccc(-c3cccc(OCC4CCCCC4)c3)c2)c1 (stereo not drawn) [Example 190, 1-(3′-(cyclohexylmethoxy)-[1,1′-biphenyl]-3-yl)-5-(2-(1-methyl-1H-imidazol-4-yl)cyclopropyl)-1H-pyrazole-4-carboxylic acid] | 1 to 10 | 10 to 100 | 1 to 10 | 
8 | CN(CC1CC1)C(=O)c1cccc(-c2cccc(-n3ncc(C(=O)O)c3C3CC3)c2)c1F [Example 48, 5-cyclopropyl-1-(3-{3-[(cyclopropylmethyl)(methyl)carbamoyl]-2-fluorophenyl}phenyl)-1H-pyrazole-4-carboxylic Acid] | 0.1 to 1 | 1 to 10 | 1 to 10 | 

Now from value to molecule, other results behind:

Row | IC50 [2] [µM] | IC50 [3] [µM] | SMILES | EC50 [1] [µM] | EC50 ([1]; BEAS-2B, 48 h) [µM]
9 | 0.1 to 1 | 1 to 10 | CCCC1CCCCN1C(=O)c1cccc(-c2cccc(-n3ncc(C(=O)O)c3C3CC3c3cccnc3)c2)c1 (stereo not drawn) [Example 52, 1-{3-[3-(2-propylpiperidine-1-carbonyl)phenyl]phenyl}-5-[2-(pyridin-3-yl)cyclopropyl]-1H-pyrazole-4-carboxylic Acid] |  | 1 to 10
10 | 0.01 to 0.1 | 1 to 10 | CCCN(CC1CC1)C(=O)c1cccc(-c2cccc(-n3ncc(C(=O)O)c3C3CC3)c2)c1F [Example 9, 5-Cyclopropyl-1-(3-{3-[(cyclopropylmethyl)(propyl)carbamoyl]-2-fluorophenyl}phenyl)-1H-pyrazole-4-carboxylic Acid] | 1 to 10 | 
11 | 0.1 to 1 | 1 to 10 | CN(CC1CC1)C(=O)c1cccc(-c2cccc(-n3ncc(C(=O)O)c3C(F)(F)F)c2)c1F [Example 47, 1-(3-{3-[(cyclopropylmethyl)(methyl)carbamoyl]-2-fluorophenyl}phenyl)-5-(trifluoromethyl)-1H-pyrazole-4-carboxylic Acid] | 1 to 10 | 
12 | 0.1 to 1 | 10 to 100 | CN(C)C(=O)c1cccc(-c2cccc(-n3ncc(C(=O)O)c3C3CCCC3)c2)c1F [Example 1, 5-Cyclopentyl-1-{3-[3-(dimethylcarbamoyl)-2-fluorophenyl]phenyl}-1H-pyrazole-4-carboxylic Acid] | 1 to 10 | 
13 | 0.01 to 0.1 | 0.1 to 1 | CCCC1CCCCN1C(=O)c1cccc(-c2cccc(-n3ncc(C(=O)O)c3CCc3cn(C)nn3)c2)c1F (stereo not drawn) [Example 56, 1-(2′-Fluoro-3′-(2-propylpiperidine-1-carbonyl)-[1,1′-biphenyl]-3-yl)-5-(2-(1-methyl-1H-1,2,3-triazol-4-yl)ethyl)-1H-pyrazole-4-carboxylic Acid] | 1 to 10 | 
14 | 0.1 to 1 | 1 to 10 | CCCN(CC1CC1)C(=O)c1cccc(-c2cccc(-n3ncc(C(=O)O)c3C3CC3)c2)c1Cl [Example 15, 1-(3-{2-Chloro-3-[(cyclopropylmethyl)(propyl)carbamoyl]phenyl}phenyl)-5-cyclopropyl-1H-pyrazole-4-carboxylic Acid] | 1 to 10 | 
15 | 0.01 to 0.1 | 0.1 to 1 | O=C(O)c1cnn(-c2cccc(-c3cccc(C(=O)N4CCOC5(CCCC5)C4)c3F)c2)c1C1CC1 [Example 44, 5-cyclopropyl-1-[3-(2-fluoro-3-{6-oxa-9-azaspiro[4.5]decane-9-carbonyl}phenyl)phenyl]-1H-pyrazole-4-carboxylic Acid] | 1 to 10 | 
16 | 0.1 to 1 | 1 to 10 | O=C(O)c1cnn(-c2cccc(-c3cccc(C(=O)N4CCCC(C(F)(F)F)C4)c3F)c2)c1C1CC1 (stereo not drawn) [Example 18, 5-Cyclopropyl-1-(3-{2-fluoro-3-[3-(trifluoromethyl)piperidine-1-carbonyl]phenyl}phenyl)-1H-pyrazole-4-carboxylic Acid] | 1 to 10 | 
17 | 0.01 to 0.1 | 1 to 10 | COCC1CCCCN1C(=O)c1cccc(-c2cccc(-n3ncc(C(=O)O)c3C3CC3)c2)c1F (stereo not drawn) [Example 22, 5-Cyclopropyl-1-(3-{2-fluoro-3-[2-(methoxymethyl)piperidine-1-carbonyl]phenyl}phenyl)-1H-pyrazole-4-carboxylic Acid] | 1 to 10 | 
18 | 0.1 to 1 | 0.1 to 1 | Cn1cc(C2CC2c2c(C(=O)O)cnn2-c2cccc(-c3cccc(OCC4CCCOC4)c3)c2)nn1 (stereo not drawn) [Example 169, 5-(2-(1-Methyl-1H-1,2,3-triazol-4-yl)cyclopropyl)-1-(3′-((tetrahydro-2H-pyran-3-yl)methoxy)-[1,1′-biphenyl]-3-yl)-1H-pyrazole-4-carboxylic acid] | 1 to 10 | 
19 | 0.1 to 1 | 1 to 10 | Cc1ccnn1-c1cccc(-c2cccc(-n3ncc(C(=O)O)c3C3CC3)c2)c1F [Example 39, 5-cyclopropyl-1-{3-[2-fluoro-3-(5-methyl-1H-pyrazol-1-yl)phenyl]phenyl}-1H-pyrazole-4-carboxylic Acid] | 1 to 10 | 
